Measured values as given in US20170066759A1, “AROMATIC 5-MEMBERED HETEROCYCLIC DERIVATIVE HAVING TRPV4-INHIBITING ACTIVITY” (Shionogi & Co., Ltd., priority 2012, published 2017).

How the values were obtained:
[1] = biological target: T1, CYP2C9 (Homo sapiens, UniProt P11712); test: Test Example 6: CYP inhibition test, tolbutamide methyl-hydroxylation (CYP2C9); assay type: in vitro ADME; settings: pooled human hepatic microsome, 100 μmol/L tolbutamide
T1 construct: enzyme, pooled human hepatic microsome 0.2 mg protein/mL; from tissue; host or cells: pooled human liver microsomes
T1 sequence (P11712 whole entry): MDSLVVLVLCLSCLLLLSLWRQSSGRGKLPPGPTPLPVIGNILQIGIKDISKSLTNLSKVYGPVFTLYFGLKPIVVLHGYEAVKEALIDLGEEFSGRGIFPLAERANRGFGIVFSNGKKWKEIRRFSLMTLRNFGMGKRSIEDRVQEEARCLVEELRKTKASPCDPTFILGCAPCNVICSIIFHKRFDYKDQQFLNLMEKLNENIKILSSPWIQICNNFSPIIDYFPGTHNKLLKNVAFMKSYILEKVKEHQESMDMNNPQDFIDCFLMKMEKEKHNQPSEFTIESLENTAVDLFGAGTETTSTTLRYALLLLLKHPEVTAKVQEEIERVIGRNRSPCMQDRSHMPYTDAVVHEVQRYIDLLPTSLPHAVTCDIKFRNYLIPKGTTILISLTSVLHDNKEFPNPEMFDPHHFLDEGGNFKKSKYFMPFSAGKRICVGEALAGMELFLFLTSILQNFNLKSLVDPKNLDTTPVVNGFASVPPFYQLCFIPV
Procedure: (§1) Test Example 6 CYP Inhibition Test […] The reaction conditions were as follows: substrate, 0.5 μmol/L ethoxyresorufin (CYP1A2), 100 μmol/L tolbutamide (CYP2C9), 50 μmol/L S-mephenytoin (CYP2C19), 5 μmol/L dextromethorphan (CYP2D6), 1 μmol/L terfenedine (CYP3A4); reaction time, 15 minutes; reaction temperature, 37° C.; enzyme, pooled human hepatic microsome 0.2 mg protein/mL; concentration of the compound of the present invention, 1, 5, 10, 20 μmol/L (four points). Each five kinds of substrates, human hepatic microsome, and the compound of the present invention in 50 mmol/L Hepes buffer as a reaction solution were added to a 96-well plate at the composition as described above. NADPH, as a cofactor was added to initiate metabolism reactions as markers and, after the incubation at 37° C. for 15 minutes, a methanol/acetonitrile=1/1 (v/v) solution was added to stop the reaction. After the centrifugation at 3000 rpm for 15 minutes, resorufin (CYP1A2 metabolite) in the supernatant was quantified by a fluorescent multilabel counter and toltributamide hydroxide (CYP2[…] metabolite), mephenytoin 4' hydroxide (CYP2C19 metabolite), […], and terfenadine alcohol (CYP3A4 metabolite) were quantified by LC/MS/MS. Addition of only DMSO being a solvent dissolving the compound of the present invention to a reaction system was adopted as a control (100%). Remaining activity (%) was calculated at each concentration of the compound of the present invention added as the solution and IC50 was calculated by reverse presumption by a logistic model using a concentration and an inhibition rate.

[2] = biological target: T2, CYP2C19 (Homo sapiens, UniProt P33261); test: Test Example 6: CYP inhibition test, mephenytoin 4′-hydroxylation (CYP2C19); assay type: in vitro ADME; settings: pooled human hepatic microsome, 50 μmol/L S-mephenytoin
T2 construct: enzyme, pooled human hepatic microsome 0.2 mg protein/mL; from tissue; host or cells: pooled human liver microsomes
T2 sequence (P33261 whole entry): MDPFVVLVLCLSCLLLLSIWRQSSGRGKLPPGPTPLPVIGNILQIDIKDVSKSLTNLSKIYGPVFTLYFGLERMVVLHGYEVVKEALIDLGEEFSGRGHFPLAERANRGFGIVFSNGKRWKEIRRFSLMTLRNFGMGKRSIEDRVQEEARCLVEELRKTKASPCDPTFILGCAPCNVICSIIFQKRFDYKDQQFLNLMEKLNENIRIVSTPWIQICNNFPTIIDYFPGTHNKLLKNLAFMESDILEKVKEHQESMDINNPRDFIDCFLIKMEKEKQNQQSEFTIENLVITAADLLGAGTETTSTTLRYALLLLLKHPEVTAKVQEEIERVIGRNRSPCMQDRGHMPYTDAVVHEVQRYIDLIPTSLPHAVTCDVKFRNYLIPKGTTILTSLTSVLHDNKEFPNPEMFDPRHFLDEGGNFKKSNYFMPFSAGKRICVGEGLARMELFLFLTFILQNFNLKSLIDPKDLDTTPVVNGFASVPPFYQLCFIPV
Procedure: as §1

[3] = biological target: T3, CYP3A4 (Homo sapiens, UniProt P08684); test: Test Example 6: CYP inhibition test, terfenedine hydroxylation (CYP3A4); assay type: in vitro ADME; settings: pooled human hepatic microsome, 1 μmol/L terfenedine
T3 construct: enzyme, pooled human hepatic microsome 0.2 mg protein/mL; from tissue; host or cells: pooled human liver microsomes
T3 sequence (P08684 whole entry): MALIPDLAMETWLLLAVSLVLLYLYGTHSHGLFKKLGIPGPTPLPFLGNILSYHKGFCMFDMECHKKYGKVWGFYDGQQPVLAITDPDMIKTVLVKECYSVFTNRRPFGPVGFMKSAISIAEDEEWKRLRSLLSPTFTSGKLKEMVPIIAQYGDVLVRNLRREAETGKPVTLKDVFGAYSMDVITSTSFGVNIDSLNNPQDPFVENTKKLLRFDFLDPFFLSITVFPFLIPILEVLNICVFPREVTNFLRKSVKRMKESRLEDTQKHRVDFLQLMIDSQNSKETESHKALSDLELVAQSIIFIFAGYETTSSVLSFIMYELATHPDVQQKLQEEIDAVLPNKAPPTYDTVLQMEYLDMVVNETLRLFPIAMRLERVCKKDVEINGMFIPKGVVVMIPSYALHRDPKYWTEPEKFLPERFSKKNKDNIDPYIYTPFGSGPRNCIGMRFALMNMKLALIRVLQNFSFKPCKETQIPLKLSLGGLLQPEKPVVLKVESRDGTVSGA
Procedure: as §1

[4] = biological target: T4, human TRPV4 (hTRPV4/CHO cells) (Homo sapiens, UniProt Q9HBA0); test: Test Example 4: TRPV4 inhibitory activity (Ki value), 4α-PDD stimulation, Fluo-3 calcium fluorescence (FDSS 3000); assay type: cell-based; settings: Test Example 4, 4α-PDD stimulation, read-out: Test 4 Ki
T4 construct: expressed in transfected cells; host or cells: CHO-K1
T4 sequence (Q9HBA0 whole entry): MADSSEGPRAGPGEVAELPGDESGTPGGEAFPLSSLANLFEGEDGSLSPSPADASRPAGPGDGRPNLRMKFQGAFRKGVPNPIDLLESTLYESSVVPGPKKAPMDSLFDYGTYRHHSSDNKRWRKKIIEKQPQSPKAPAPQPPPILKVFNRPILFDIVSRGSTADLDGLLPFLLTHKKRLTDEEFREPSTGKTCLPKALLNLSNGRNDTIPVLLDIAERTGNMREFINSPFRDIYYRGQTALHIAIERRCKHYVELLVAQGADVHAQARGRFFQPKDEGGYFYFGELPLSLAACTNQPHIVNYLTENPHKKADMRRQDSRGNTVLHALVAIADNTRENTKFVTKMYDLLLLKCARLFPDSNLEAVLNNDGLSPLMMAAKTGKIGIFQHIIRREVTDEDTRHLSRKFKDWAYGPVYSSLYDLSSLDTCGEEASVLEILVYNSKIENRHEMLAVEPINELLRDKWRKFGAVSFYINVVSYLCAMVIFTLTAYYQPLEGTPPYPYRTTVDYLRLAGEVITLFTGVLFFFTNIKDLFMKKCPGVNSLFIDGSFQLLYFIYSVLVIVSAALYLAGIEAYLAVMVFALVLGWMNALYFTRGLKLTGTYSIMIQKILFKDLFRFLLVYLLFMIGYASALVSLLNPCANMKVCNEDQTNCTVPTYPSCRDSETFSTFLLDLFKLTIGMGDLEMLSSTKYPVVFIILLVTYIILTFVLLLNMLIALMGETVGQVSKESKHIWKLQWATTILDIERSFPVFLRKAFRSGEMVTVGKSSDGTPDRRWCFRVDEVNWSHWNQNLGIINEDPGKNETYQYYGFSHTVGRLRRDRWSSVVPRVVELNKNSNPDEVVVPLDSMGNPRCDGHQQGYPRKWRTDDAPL
Procedure: TRPV4 Inhibitory Activity (Ki Value)
For each compound, TRPV4 inhibitory activity was measured using cells.
(Method) The procedures of evaluating TRPV4 inhibitory activity of a compound are as follows.
(1) TRPV4 inhibitory activity was measured using CHO-K1 cells stably expressing human TRPV4 (hTRPV4/CHO cells).
(2) Cells were subcultured using the MEM-α medium (SIGMA M4526: 500 ml), FBS (HyCloneSH30070.03: 10%), L-Glutamine 200 mmol/L (GIBCO: 4 mmol/L), P/S (nacalai tesque: 1%), G418 (nacalai tesque: 1 mg/mL).
(3) The 96-well plates which hTRPV4/CHO cells were seeded at densities of 2×10^4 cells/well in the culture medium in the day before the experimental day, and cultured in a CO2 incubator in the presence of 5% CO2 at 37° C. for 24 hours was used as assay plates.
(4) Cells were washed with assay buffer (Hank's Balanced Salt Solution 9.8 g, 1 mol/L HEPES (pH7.5), 250 mmol/L probenecid).
(5) Fluo-3, fluorescent dye for Ca influx assay was added to each well, then the assay plate was incubated in a CO2 incubator in the presence of 5% CO2 at 37° C. for one hour (final conc.; 5 μmol/L Fluo-3).
(6) The assay plate was washed with the assay buffer, and the buffer was remained at 30 μL/well. Then the assay plate was incubated for 10 min at 37° C.
(7) 20 μL of diluted compound solution was added to each well of assay plate, and mixed with built-in Pipette and Mixer of the fluorescence analysis system FDSS 3000 (Hamamatsu Photonics).
(8) 50 μL of 4α-PDD solution (concluding 0.1% Pluronic F-127) was applied to each well of assay plate and mixed.
(9) The fluorescent intensity was measured by FDSS 3000 for 8 min from the point of time addition the compound solution, at Ex 480 nm, Em 540 nm wavelength.
TRPV4 inhibitory activity (Ki value) of a compound was calculated according to the following procedure.
(10) In the presence of the compound, the difference between maximal and minimal of fluorescent intensity value for 8 min from just before addition of 4α-PDD solution was calculated, and it was referred as Max-Min value. Max-Min value of the Ruthenium Red at 10 μM was defined as 100% inhibitory activity, Max-Min value in the absence of the compound was defined as 0% inhibitory activity. TRPV4 inhibitory activity of the compound was calculated by the following formula.
(1−(Max−Min value of the compound−100% inhibitory activity)/(0% inhibitory activity−100% inhibitory activity))×100
(11) By the following formula, inhibitory activity was calculated at 10 points with three fold serial dilution, in the final concentration of the compound from 10 μmol/L to 0.5 nmol/L. The IC50 value was calculated by dose-response curve.
100−[(fluorescent intensity in the presence of the compound−fluorescent intensity of back ground)/(total fluorescent intensity−fluorescent intensity of back ground)]×100
(12) In the presence of the compound, activity of 4α-PDD was measured at 9 points with three fold serial dilution from 20 μmol/L. Activity of 4α-PDD was calculated by the following formula.
(Max−Min value of the each 4α-PDD concentration−0% activity)/(100% activity−0% activity))×100
(13) Effective activity was calculated in 4α-PDD the above. The EC50 value was calculated by dose-response curve.
(14) The Ki value of a compound was calculated by the following formula.
Ki=IC50 value/1+([A]/EC50)
[A]: Concentration of agonist (nmol/L)

[5] = biological target: T5, CYP1A2 (Homo sapiens, UniProt P05177); test: Test Example 6: CYP inhibition test, 7-ethoxyresorufin O-deethylation (CYP1A2); assay type: in vitro ADME; settings: pooled human hepatic microsome, 0.5 μmol/L ethoxyresorufin
T5 construct: enzyme, pooled human hepatic microsome 0.2 mg protein/mL; from tissue; host or cells: pooled human liver microsomes
T5 sequence (P05177 1-516): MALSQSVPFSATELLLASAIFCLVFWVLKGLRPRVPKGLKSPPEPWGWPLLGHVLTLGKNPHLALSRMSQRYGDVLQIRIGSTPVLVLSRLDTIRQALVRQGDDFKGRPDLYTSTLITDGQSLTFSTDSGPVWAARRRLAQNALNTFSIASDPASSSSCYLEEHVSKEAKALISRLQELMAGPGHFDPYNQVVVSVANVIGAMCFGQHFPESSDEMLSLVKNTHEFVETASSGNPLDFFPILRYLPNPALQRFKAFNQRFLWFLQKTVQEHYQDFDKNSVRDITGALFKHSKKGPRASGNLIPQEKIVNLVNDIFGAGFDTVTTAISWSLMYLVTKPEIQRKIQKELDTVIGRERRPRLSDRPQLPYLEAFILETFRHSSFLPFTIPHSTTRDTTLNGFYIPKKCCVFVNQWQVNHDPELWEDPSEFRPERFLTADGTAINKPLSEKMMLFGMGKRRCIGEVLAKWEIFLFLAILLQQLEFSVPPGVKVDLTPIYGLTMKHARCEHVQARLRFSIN
Procedure: as §1

[6] = biological target: T6, CYP2D6 (Homo sapiens, UniProt P10635); test: Test Example 6: CYP inhibition test, dextromethorphan O-demethylation (CYP2D6); assay type: in vitro ADME; settings: pooled human hepatic microsome, 5 μmol/L dextromethorphan
T6 construct: enzyme, pooled human hepatic microsome 0.2 mg protein/mL; from tissue; host or cells: pooled human liver microsomes
T6 sequence (P10635 whole entry): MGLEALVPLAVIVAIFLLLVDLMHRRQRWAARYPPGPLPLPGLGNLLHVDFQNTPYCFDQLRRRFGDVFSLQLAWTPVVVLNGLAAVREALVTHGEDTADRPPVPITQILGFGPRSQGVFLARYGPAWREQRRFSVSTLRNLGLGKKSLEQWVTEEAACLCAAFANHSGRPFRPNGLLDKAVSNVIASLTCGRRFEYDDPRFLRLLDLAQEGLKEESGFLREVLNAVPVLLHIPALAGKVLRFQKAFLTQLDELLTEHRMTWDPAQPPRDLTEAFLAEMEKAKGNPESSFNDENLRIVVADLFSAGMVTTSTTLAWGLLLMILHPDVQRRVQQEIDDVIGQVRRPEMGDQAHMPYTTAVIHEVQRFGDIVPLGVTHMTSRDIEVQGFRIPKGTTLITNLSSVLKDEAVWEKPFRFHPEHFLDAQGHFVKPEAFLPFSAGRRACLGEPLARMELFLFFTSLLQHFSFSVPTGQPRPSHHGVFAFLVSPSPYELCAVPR
Procedure: as §1

[7] = Test Example 8: Solubility test; assay type: physicochemical; settings: fassgf or other biorelevant, kinetic from dmso stock; 1% DMSO addition, artificial intestinal juice pH 6.8, 16 hours at 25° C.
Procedure: The solubility of a compound of the present invention was determined under 1% DMSO addition conditions. A 10 mmol/L solution of the compound was prepared with DMSO, and 6 μL of the solution of the compound of the present invention was added to 594 μL of an artificial intestinal juice (water and 118 mL of 0.2 mol/L NaOH reagent were added to 250 mL of 0.2 mol/L potassium dihydrogen phosphate reagent to reach 1000 mL) with a pH of 6.8. The mixture was left standing for 16 hours at 25° C., and the mixture was vacuum-filtered. The filtrate was two-fold diluted with methanol/water=1/1 (V/V), and the compound concentration in the filtrate was measured with HPLC or LC/MS/MS by the absolute calibration method.

[8] = biological target: T4, human TRPV4 (hTRPV4/CHO cells); test: Test Example 1: TRPV4 inhibitory activity (IC50 value), 4α-PDD stimulation, Fluo4 calcium fluorescence (FLIPR TETRA); assay type: cell-based; settings: Test Example 1, 4α-PDD stimulation, read-out: Test 1 IC50
[9] = Test Example 9: Metabolism stability test; assay type: in vitro ADME; settings: human liver microsomes 0.5 mg protein/mL, 30 minutes at 37° C., NADPH, compound concentration 0.5 μmol/L
Procedure: Metabolism Stability Test
Using a commercially available pooled human hepatic microsomes, a compound of the present invention was reacted for a constant time, a remaining rate was calculated by comparing a reacted sample and an unreacted sample, thereby, a degree of metabolism in liver was assessed.
A reaction was performed (oxidative reaction) at 37° C. for 0 minute or 30 minutes in the presence of 1 mmol/L NADPH in 0.2 mL of a buffer (50 mmol/L Tris-HCl pH 7.4, 150 mmol/L potassium chloride, 10 mmol/L magnesium chloride) containing 0.5 mg protein/mL of human liver microsomes. After the reaction, 50 μL of the reaction mixture was added to 100 μL of a methanol/acetonitrile=1/1 (v/v), mixed and centrifuged at 3000 rpm for 15 minutes. The compound of the present invention in the supernatant was quantified by LC/MS/MS, and a remaining amount of the compound of the present invention after the reaction was calculated, letting a compound amount at 0 minute reaction time to be 100%. Hydrolysis reaction was performed in the absence of NADPH and glucuronidation reaction was in the presence of 5 mmol/L UDP-glucuronic acid in place of NADPH, followed by similar operations.
(Results) Compound concentration: 0.5 μmol/L

[10] = biological target: T7, CYP3A4 enzyme expressed in Escherichia coli (Homo sapiens, UniProt P08684); test: Test Example 5: CYP3A4 fluorescent MBI test; assay type: in vitro ADME; settings: substrate 7-BFC, pre-reaction 30 minutes, compound 0.625-20 μmol/L
T7 construct: host or cells: Escherichia coli
T7 sequence (P08684 whole entry): as the sequence (P08684 whole entry) above
Procedure: CYP3A4 Fluorescent MBI Test
The CYP3A4 fluorescent MBI test is a test of investigating enhancement of CYP3A4 inhibition of a compound of the present invention by a metabolism reaction, and the test was performed using, as CYP3A4 enzyme expressed in Esherichia coli and employing, as an index, a reaction in which 7-benzyloxytrifluoromethylchmarin (7-BFC) is debenzylated by the CYP3A4 enzyme to produce a metabolite, 7-hydroxytrifluoromethylchmarin (HFC) emitting fluorescent light.
The reaction conditions were as follows: substrate, 5.6 μmol/L 7-BFC; pre-reaction time, […] or 30 minutes; reaction time, 15 minutes; reaction temperature, 25° C. […]
An enzyme in a K-Pi buffer (pH 7.4) and a solution of the compound of the present invention as a pre-reaction solution were added to a 96-well plate at the above composition of the pre-reaction. […] For the plate on which each index reaction had been performed, a fluorescent value of 7-HFC which is a metabolite was measured with a fluorescent plate reader. […]
Addition of only DMSO which is a solvent dissolving the compound of the present invention to a reaction system was adopted as a control (100%). Remaining activity (%) was calculated at each concentration of the compound of the present invention added as the solution, and IC50 was calculated by reverse-presumption by a logistic model using a concentration and an inhibition rate. […]

Structure (SMILES) | IC50 [1] [µM] | IC50 [2] [µM] | IC50 [3] [µM] | Ki [4] [µM] | IC50 [5] [µM] | IC50 [6] [µM] | solubility at 16 h [7] [µM] | IC50 [8] [µM] | Metabolism stability: remaining amount of the compound after the reaction [9] [%] | CYP3A4 fluorescent MBI test: difference between IC50 values without and with preincubation [10]
Cc1nc(C)c(-c2csc(NC(=O)[C@@H]3CCC(=O)N3)n2)s1 [Compound I-42] | > 20 | > 20 | > 20 | 1 to 3 | > 20 | > 20 |  |  |  | 
Cc1nc(CN(C)C)sc1-c1csc(NC(=O)Cc2c(F)cccc2F)n1 [Compound I-81] |  |  |  |  |  |  | > 50 | 1 to 8 |  | 
Cc1nc(CO)sc1-c1csc(NC(=O)C2CCC(F)(F)C2)n1 (stereo not drawn) [Compound I-95] | > 20 | > 20 | > 20 |  | > 20 | > 20 |  | 0.1 to 1 | 99.4 | 
Cc1nc(C(=O)NO)sc1-c1csc(NC(=O)Cc2c(F)cccc2F)n1 [Compound I-107] | > 20 | > 20 | > 20 |  | > 20 | > 20 |  | 0.1 to 1 |  | (−) (when the difference is 3 μM or less, this was defined as (−))
Cc1nc(C)c(-c2csc(NC(=O)Cn3cc(Cl)cn3)n2)s1 [Compound I-116] | > 20 | > 20 | > 20 |  | > 20 | > 20 |  | 1 to 8 |  | 
Cc1nc(C)c(-c2csc(NS(=O)(=O)Cc3ccccc3)n2)s1 [II-1] |  |  |  | 1 to 3 |  |  | > 50 |  |  | 
